Experimental data reported in patent publication US20060069132A1, “Azolecarboxamide herbicides” (priority 2004, published 2006).

Assays:
corn = experiment: Test B pre-/postemergence herbicide test; format: in vivo, Zea mays; conditions: for Corn plant response rating: postemergence, scale 0 (no effect) to 100 (complete control)
Method in brief: (§1)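 Herbicidal effect was judged by eye on a 0–100 scale after plants stood 13 to 15 days in the greenhouse following pre- or postemergence treatment with surfactant-containing formulations.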

redroot pigweed = experiment: Test A pre-/postemergence herbicide test; format: in vivo, Amaranthus retroflexus
Method in brief: (§2)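 Seeds sown in sandy loam received a preemergence directed soil spray of compound in non-phytotoxic solvent with surfactant; postemergence plants (2–10 cm, one- to two-leaf stage) were sprayed to runoff at the same time. After ~10 days in greenhouse, injury was rated visually versus untreated controls (0 = no effect, 100 = complete control).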

rice [1] = experiment: Test B pre-/postemergence herbicide test; format: in vivo, Oryza sativa; conditions: 0 = no effect, 100 = complete control, preemergence
Method in brief: as §1

pigweed = experiment: Test B pre-/postemergence herbicide test; format: in vivo, Amaranthus retroflexus; conditions: for Pigweed plant response rating: postemergence, scale 0 (no effect) to 100 (complete control)
Method in brief: as §1

wild oat = experiment: Test B postemergence herbicide test; format: in vivo, Avena fatua; conditions: postemergence, visual rating, scale 0 (no effect) to 100 (complete control)
Method in brief: (§3)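 Read-out: visual comparison with controls, scored 0 to 100, where 100 means complete control and 0 no effect. Formulated chemicals were applied postemergence to plants 2–18 cm tall (1- to 4-leaf), or to flooded-paddy plants at the 2-leaf stage, then held 13 to 15 days under glass.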

blackgrass = experiment: Test B postemergence herbicide test; format: in vivo, Alopecurus myosuroides; conditions: postemergence, visual rating, scale 0 (no effect) to 100 (complete control)
Method in brief: (§4)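 Scale 0–100: zero equals no visible effect, 100 complete control, judged by eye relative to controls. Timing: 13 to 15 days in greenhouse post-treatment. Growth stage at spraying: two leaves (paddy) or one to four leaves, 2–18 cm (postemergence).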

lambsquarters = experiment: Test B pre-/postemergence herbicide test; format: in vivo, Chenopodium album; conditions: for Lambsquarters plant response rating: postemergence, scale 0 (no effect) to 100 (complete control)
Method in brief: as §1

barnyardgrass [2] = experiment: Test B pre-/postemergence herbicide test; format: in vivo, Echinochloa crus-galli; conditions: for Barnyardgrass plant response rating: postemergence, scale 0 (no effect) to 100 (complete control)
Method in brief: (§5)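 Formulation: non-phytotoxic solvent mix with surfactant. Timing: preemergence on seed and postemergence on 2–18 cm plants, applied concurrently. Readout after 13–15 d greenhouse: visual 0–100 control rating against controls.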

Surinam grass = experiment: Test B pre-/postemergence herbicide test; format: in vivo, Urochloa decumbens; conditions: for Surinam Grass plant response rating: postemergence, scale 0 (no effect) to 100 (complete control)
Method in brief: as §1

morningglory [3] = experiment: Test B pre-/postemergence herbicide test; format: in vivo, Ipomoea coccinea; conditions: for Morningglory plant response rating: postemergence, scale 0 (no effect) to 100 (complete control)
Method in brief: as §5

rice [4] = experiment: Test B flooded paddy test; format: in vivo, Oryza sativa; conditions: 1000 g ai/ha, visual rating, scale 0 to 100 (0 no effect, 100 complete control), 13 to 15 days
Method in brief: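 Treated at 2-leaf (paddy) or 1–4-leaf, 2–18 cm (postemergence); greenhouse 13–15 d; visual score vs control, 0 none to 100 complete control; dash = not tested.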

velvetleaf [5] = experiment: Test B pre-/postemergence herbicide test; format: in vivo, Abutilon theophrasti; conditions: for Velvetleaf plant response rating: postemergence, scale 0 (no effect) to 100 (complete control)
Method in brief: as §1

morningglory [6] = experiment: Test A pre-/postemergence herbicide test; format: in vivo, Ipomoea spp.
Method in brief: as §2

ducksalad = experiment: Test B flooded paddy test; format: in vivo, Heteranthera limosa; conditions: 1000 g ai/ha, visual rating, scale 0 to 100 (0 no effect, 100 complete control), 13 to 15 days
Method in brief: as §4

large crabgrass [7] = experiment: Test B pre-/postemergence herbicide test; format: in vivo, Digitaria sanguinalis; conditions: for Crabgrass, Large plant response rating: postemergence, scale 0 (no effect) to 100 (complete control)
Method in brief: as §1

giant foxtail [8] = experiment: Test A pre-/postemergence herbicide test; format: in vivo, Setaria faberi
Method in brief: as §2

large crabgrass [9] = experiment: Test A pre-/postemergence herbicide test; format: in vivo, Digitaria sanguinalis
Method in brief: as §2

[10] = tested on: small flower umbrella sedge; experiment: Test B flooded paddy test; format: in vivo, Cyperus difformis; conditions: 1000 g ai/ha, visual rating, scale 0 to 100 (0 no effect, 100 complete control), 13 to 15 days
Method in brief: as §4

barnyardgrass [11] = experiment: Test A pre-/postemergence herbicide test; format: in vivo, Echinochloa crus-galli
Method in brief: as §2

cocklebur = experiment: Test B pre-/postemergence herbicide test; format: in vivo, Xanthium strumarium; conditions: for Cocklebur plant response rating: postemergence, scale 0 (no effect) to 100 (complete control)
Method in brief: as §5

velvetleaf [12] = experiment: Test A pre-/postemergence herbicide test; format: in vivo, Abutilon theophrasti
Method in brief: as §2

wheat = experiment: Test B postemergence herbicide test; format: in vivo, Triticum aestivum; design: key to Wheat plant response rating: 0 = no effect, 100 = complete control; conditions: postemergence, visual rating, scale 0 (no effect) to 100 (complete control)
Method in brief: as §3

barnyardgrass [13] = experiment: Test B flooded paddy test; format: in vivo, Echinochloa crus-galli; conditions: 1000 g ai/ha, visual rating, scale 0 to 100 (0 no effect, 100 complete control), 13 to 15 days
Method in brief: as §4

giant foxtail [14] = experiment: Test B pre-/postemergence herbicide test; format: in vivo, Setaria faberi; conditions: for Foxtail, Giant plant response rating: postemergence, scale 0 (no effect) to 100 (complete control)
Method in brief: as §1

[15] = 125 g ai/ha, 0 = no effect, 100 = complete control, preemergence
[16] = 500 g ai/ha, visual rating, 0 = no effect, 100 = complete control, preemergence
[17] = Postemergence, 500 g ai/ha, 0 to 100 scale, 0 no effect, 100 complete control
[18] = Postemergence, 2000 g ai/ha, 0 to 100 scale, 0 no effect, 100 complete control
[19] = Preemergence, 2000 g ai/ha, visual rating, 0 to 100 scale (0 no effect, 100 complete control)
[20] = preemergence, 500 g ai/ha, visual injury, 0 to 100 scale (0 no effect, 100 complete control)

In the case of C#CCNC(=O)c1cccc(NC(=O)c2sc(C(C)(C)C)nc2CC)n1 [Compound 217], the “Corn plant response rating (0 to 100 scale)” value (corn; [15]) is reported as 0, the “Plant response rating, Corn” value (corn; [16]) is reported as 0 and the “Corn plant response rating” value (corn; 125 g ai/ha, visual rating) is reported as 0. For the same compound, the “Corn plant response rating” value (corn; 500 g ai/ha, visual rating) was 0, the “Pigweed plant response rating” value (redroot pigweed; [17]) was 10 and the “Plant response rating, Pigweed” value (redroot pigweed; [18]) was 25. For the same compound, the “Pigweed plant response rating” value (redroot pigweed; [19]) was 40, the “Pigweed plant response rating” value (redroot pigweed; [20]) was 0 and the “Rice plant response rating (0 to 100 scale)” value (rice [1]; 125 g ai/ha) was 0. The “Plant response rating, Rice” value (rice [1]; 500 g ai/ha, visual rating) was 0, the “Pigweed plant response rating (0 to 100 scale)” value (pigweed; [15]) was 0 and the “Plant response rating, Pigweed” value (pigweed; [16]) was 0. For the same compound, the “Pigweed plant response rating” value (pigweed; 125 g ai/ha, visual rating) was 0, the “Pigweed plant response rating” value (pigweed; 500 g ai/ha, visual rating) was 0 and the “Oat, Wild plant response rating” value (wild oat; 125 g ai/ha) was 0. For the same compound, the “Oat, Wild plant response rating” value (wild oat; 500 g ai/ha) was 0, the “Blackgrass plant response rating” value (blackgrass; 125 g ai/ha) was 0 and the “Blackgrass plant response rating” value (blackgrass; 500 g ai/ha) was 0. The “Lambsquarters plant response rating (0 to 100 scale)” value (lambsquarters; [15]) was 0, the “Plant response rating, Lambsquarters” value (lambsquarters; [16]) was 0 and the “Lambsquarters plant response rating” value (lambsquarters; 125 g ai/ha, visual rating) was 0. For the same compound, the “Lambsquarters plant response rating” value (lambsquarters; 500 g ai/ha, visual rating) was 0, the “Barnyardgrass plant response rating (0 to 100 scale)” value (barnyardgrass [2]; [15]) was 0 and the “Plant response rating, Barnyardgrass” value (barnyardgrass [2]; [16]) was 0. The “Barnyardgrass plant response rating” value (barnyardgrass [2]; 125 g ai/ha, visual rating) was 0, the “Barnyardgrass plant response rating” value (barnyardgrass [2]; 500 g ai/ha, visual rating) was 0 and the “Surinam Grass plant response rating (0 to 100 scale)” value (Surinam grass; [15]) was 0. The “Plant response rating, Surinam Grass” value (Surinam grass; [16]) was 0, the “Surinam Grass plant response rating” value (Surinam grass; 125 g ai/ha, visual rating) was 0 and the “Surinam Grass plant response rating” value (Surinam grass; 500 g ai/ha, visual rating) was 10. For the same compound, the “Morningglory plant response rating (0 to 100 scale)” value (morningglory [3]; [15]) was 0, the “Plant response rating, Morningglory” value (morningglory [3]; [16]) was 0 and the “Morningglory plant response rating” value (morningglory [3]; 125 g ai/ha, visual rating) was 0. For the same compound, the “Morningglory plant response rating” value (morningglory [3]; 500 g ai/ha, visual rating) was 10, the “Rice plant response rating” value (rice [4]) was 0 and the “Velvetleaf plant response rating (0 to 100 scale)” value (velvetleaf [5]; [15]) was 0. For the same compound, the “Plant response rating, Velvetleaf” value (velvetleaf [5]; [16]) was 0, the “Velvetleaf plant response rating” value (velvetleaf [5]; 125 g ai/ha, visual rating) was 0 and the “Velvetleaf plant response rating” value (velvetleaf [5]; 500 g ai/ha, visual rating) was 10. For the same compound, the “Morningglory plant response rating” value (morningglory [6]; [17]) was 15, the “Plant response rating, Morningglory” value (morningglory [6]; [18]) was 25 and the “Morningglory plant response rating” value (morningglory [6]; [19]) was 0. The “Morningglory plant response rating” value (morningglory [6]; [20]) was 0, the “Ducksalad plant response rating” value (ducksalad) was 0 and the “Crabgrass, Large plant response rating (0 to 100 scale)” value (large crabgrass [7]; [15]) was 0. The “Plant response rating, Crabgrass, Large” value (large crabgrass [7]; [16]) was 0, the “Crabgrass, Large plant response rating” value (large crabgrass [7]; 125 g ai/ha, visual rating) was 0 and the “Crabgrass, Large plant response rating” value (large crabgrass [7]; 500 g ai/ha, visual rating) was 0. The “Foxtail, Giant plant response rating” value (giant foxtail [8]; [17]) was 0, the “Plant response rating, Foxtail, Giant” value (giant foxtail [8]; [18]) was 0 and the “Foxtail, Giant plant response rating” value (giant foxtail [8]; [19]) was 10. For the same compound, the “Foxtail, Giant plant response rating” value (giant foxtail [8]; [20]) was 0, the “Crabgrass, Large plant response rating” value (large crabgrass [9]; [17]) was 0 and the “Plant response rating, Crabgrass, Large” value (large crabgrass [9]; [18]) was 20. For the same compound, the “Crabgrass, Large plant response rating” value (large crabgrass [9]; [19]) was 10, the “Crabgrass, Large plant response rating” value (large crabgrass [9]; [20]) was 0 and the “Sedge, Umbrella plant response rating” value [10] was 0. For the same compound, the “Barnyardgrass plant response rating” value (barnyardgrass [11]; [17]) was 0, the “Plant response rating, Barnyardgrass” value (barnyardgrass [11]; [18]) was 0 and the “Barnyardgrass plant response rating” value (barnyardgrass [11]; [19]) was 0. The “Barnyardgrass plant response rating” value (barnyardgrass [11]; [20]) was 0, the “Cocklebur plant response rating (0 to 100 scale)” value (cocklebur; [15]) was 0 and the “Plant response rating, Cocklebur” value (cocklebur; [16]) was 0. For the same compound, the “Cocklebur plant response rating” value (cocklebur; 125 g ai/ha, visual rating) was 0, the “Cocklebur plant response rating” value (cocklebur; 500 g ai/ha, visual rating) was 0 and the “Velvetleaf plant response rating” value (velvetleaf [12]; [17]) was 5. The “Plant response rating, Velvetleaf” value (velvetleaf [12]; [18]) was 30, the “Velvetleaf plant response rating” value (velvetleaf [12]; [19]) was 5 and the “Velvetleaf plant response rating” value (velvetleaf [12]; [20]) was 0. For the same compound, the “Wheat plant response rating” value (wheat; 125 g ai/ha) was 0, the “Wheat plant response rating” value (wheat; 500 g ai/ha) was 0 and the “Barnyardgrass plant response rating” value (barnyardgrass [13]) was 0. The “Foxtail, Giant plant response rating (0 to 100 scale)” value (giant foxtail [14]; [15]) was 0, the “Plant response rating, Foxtail, Giant” value (giant foxtail [14]; [16]) was 0 and the “Foxtail, Giant plant response rating” value (giant foxtail [14]; 125 g ai/ha, visual rating) was 0. The “Foxtail, Giant plant response rating” value (giant foxtail [14]; 500 g ai/ha, visual rating) was 0.
